Measurements as given in ChEMBL document CHEMBL4325858, “Quantitative and systems pharmacology 4. Network-based analysis of drug pleiotropy on coronary artery disease” (Eur J Med Chem, 2019).

Target: T1, Prostaglandin G/H synthase 2 (Homo sapiens, UniProt P35354)
T1 sequence (P35354 whole entry): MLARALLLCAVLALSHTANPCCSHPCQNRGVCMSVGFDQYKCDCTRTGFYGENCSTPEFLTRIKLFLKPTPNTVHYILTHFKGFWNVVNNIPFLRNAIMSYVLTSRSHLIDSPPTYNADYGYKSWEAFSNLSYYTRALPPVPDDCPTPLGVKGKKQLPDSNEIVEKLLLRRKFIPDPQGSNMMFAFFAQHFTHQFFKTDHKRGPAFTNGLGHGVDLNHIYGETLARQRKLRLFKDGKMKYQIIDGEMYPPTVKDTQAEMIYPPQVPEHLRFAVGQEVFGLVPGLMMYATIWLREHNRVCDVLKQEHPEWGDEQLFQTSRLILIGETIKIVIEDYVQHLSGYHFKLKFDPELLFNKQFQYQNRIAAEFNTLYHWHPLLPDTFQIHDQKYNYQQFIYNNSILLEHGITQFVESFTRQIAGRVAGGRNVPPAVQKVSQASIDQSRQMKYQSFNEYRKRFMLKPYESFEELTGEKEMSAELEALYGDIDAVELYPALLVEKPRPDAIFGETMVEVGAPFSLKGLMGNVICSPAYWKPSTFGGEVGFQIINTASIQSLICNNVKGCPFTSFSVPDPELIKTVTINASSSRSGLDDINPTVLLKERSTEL
Assay: Inhibition of recombinant human COX2 expressed in baculovirus infected Sf9 insect cells using arachidonic acid as substrate preincubated for 10 mins followed by substrate addition and measured after 10 mins by ELISA

SMILES: CCC(=O)NS(=O)(=O)c1ccc(-c2c(-c3ccccc3)noc2C)cc1 [PARECOXIB]
- IC50: 5 nM
